According to paper PMC6911004, “Fragment-based screening identifies molecules targeting the substrate-binding ankyrin repeat domains of tankyrase” (Scientific Reports, 2019):

Experiments:
TNKS2 ARC5 = target: T1, TNKS2 ARC5 (Homo sapiens, UniProt Q9H2K2); assay: Differential scanning fluorimetry (DSF, thermal shift); format: binding; conditions: fragment 500 μM, 5% DMSO
T1 construct: followed by TNKS2 ARC5 (1 μL, 100 μM stock); His6-GST; made in house; host or cells: E. coli
Description: Therefore, we chose TNKS2 ARC5 for screening by DSF, anticipating the largest signal window for measuring changes in Tm upon fragment binding.
We screened 1869 compounds in duplicate at a concentration of 500 μM, which we considered a reasonable compromise between having a sufficiently high concentration to identify weak binders while minimising the likelihood of false positives through fragment precipitation/aggregation and non-specific binding. The final DMSO concentration was 5%. We calculated melting temperatures using both the inflection point and the maximum peak of first derivative data methods. Both methods generally agreed, unless the melt curve was biphasic or misshapen, with slightly lower variability for the […] Tm determination method (see Materials and Methods for experimental and analysis details).
We determined the melting temperature for the unbound ARC (Tm, 0) from the mean of 12 reference melting curves per plate, with 5% DMSO only. We calculated the change in melting temperature (ΔTm) by subtracting the mean Tm, 0 from Tm, compound. We tested compounds in duplicate, defining fragments as hits if they conferred a ΔTm outside two standard deviations (2σ) from the mean, in one or both replicates. To check for consistency between plates, we ran triplicate peptide controls; however, we excluded peptide ΔTm values from the calculation of the mean ΔTm to avoid skewing the results. We observed mean ΔTm values (IP/1st derivative methods) of −0.127/−0.331 °C and σ as 0.997/1.19 °C. A hit cut-off of 2σ gave absolute shifts of +1.87/+2.05 °C for compounds that stabilised and −2.13/−2.71 °C for compounds that destabilised the ARC (Fig. 2B).
For the screen, a C1000 thermal cycler (Bio-Rad) was used to record melt curves. SYPRO Orange was purchased as a 5000 × stock in DMSO from Sigma Aldrich. The ICR fragment library was available as 100 mM stocks in DMSO, and dispensed (25 nL) using an ECHO acoustic liquid handling system into white 384-well PCR plates (Framestar, 4titude). Wells were backfilled with DMSO (225 nL). Buffer (2.75 μL, 25 mM HEPES-NaOH pH 7.5, 100 mM NaCl, 2 mM TCEP) was added, followed by TNKS2 ARC5 (1 μL, 100 μM stock) and then SYPRO orange dye (1 μL, 25×). The plate was centrifuged after the addition of each reagent (1 min, 1000 × g). Final assay concentrations were as follows: TNKS2 ARC5 (20 μM); fragment (500 μM); SYPRO Orange dye (5×); DMSO (5% v/v) in a total volume of 5 μL. Peptide control wells (3BP2 TBM 16-mer, 200 μM, sequence LPHLQRSPPDGQSFRSW with C-terminal tryptophan added for photometric concentration measurements, the N-terminus acetylated and the C-terminus amide-capped) were plated in triplicate, and there were 12 blank wells per plate, with DMSO only (250 nL, 5% v/v). Melt curves were recorded from 20–95 °C, with the temperature ramped by 0.5 °C every 15 s. Data were analysed using Vortex (Dotmatics) software and melting temperatures calculated from both the inflection point and the maximum peak of 1st-derivative data. Data points were excluded if the melt curve was poor, i.e., if there was no fluorescence signal above baseline, high fluorescence intensity throughout, or if the melt curve was shallow (<1000 rfu difference between baseline and peak maximum). The unbound melting temperature was determined from the mean of 12 reference melting curves, with 5% DMSO only. The change in melting temperature (ΔTm) was calculated by subtracting the mean Tm, 0 from Tm, compound. Compounds were tested in duplicate, and fragments were defined as hits if they gave a ΔTm outwith 2 σ from the mean in one or both replicates.
For the experiment shown in Fig. 2A, ARC and 3BP2 TBM peptide concentrations were 20 and 200 μM, respectively, in 50 mM HEPES-NaOH pH 7.5, 100 mM NaCl, 2 mM TCEP and a total volume of 25 μL. SYPRO Orange was added at 5×. Data were recorded from 4–95 °C, with the temperature ramped by 0.5 °C every 15 s, using a CFX384 thermal cycler (Bio-Rad). […]

TNKS2 ARC4 = target: T2, TNKS2 ARC4 (Homo sapiens, UniProt Q9H2K2); assay: T2 relaxation-edited ligand-observed NMR assay; format: binding; conditions: for T2 relaxation-edited: competition with 3BP2 TBM peptide: 3BP2 16-mer peptide 100 μM
T2 construct: The cell was filled with TNKS2 ARC4 (488–649); His6-GST; made in house; host or cells: E. coli
T2 sequence (Q9H2K2 488-649): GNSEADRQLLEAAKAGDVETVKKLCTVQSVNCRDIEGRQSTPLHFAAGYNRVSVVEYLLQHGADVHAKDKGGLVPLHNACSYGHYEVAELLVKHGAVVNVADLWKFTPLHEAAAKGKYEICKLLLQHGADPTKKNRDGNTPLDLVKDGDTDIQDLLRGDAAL
Description: We next sought close structural analogues of hit fragments 3 and 5 to gain early insights into structure-activity relationships (SAR) and binding modes of hit fragments. We initially tested the analogues using both relaxation-edited and waterLOGSY NMR assays against TNKS2 ARC4 (Table 1), followed by protein-observed NMR if binding was detected in both ligand-observed NMR experiments.
Fragments were dispensed in duplicate into a 384-well plate (250 nL, 100 mM stock in DMSO). Wells were backfilled with DMSO (2.25 μL). Tankyrase ARC protein (47.5 μL in 25 mM HEPES, pH 7.5, 100 mM NaCl, 2 mM TCEP, 10% D2O; 20 μM final protein concentration in the assay) was added to the ‘protein’ samples; buffer only (47.5 μL) was added to the ‘compound-only’ samples. Solutions were transferred to 1.7 mm NMR tubes using a Gilson liquid handling system. ^1H NMR spectra were recorded, with the DMSO and water signals dampened. A relaxation spin filter was applied at 400 ms[65]. Data were processed using Bruker Topspin 3.14. Lines were broadened with LB = 3.0, and the baseline was corrected between 6.0–10.0 ppm. The average integral for all peaks between 6.0–10.0 ppm was calculated, and the difference between compound-only and compound-plus-protein samples was compared. A reduction in signal integrals of ≥15% was classified as a hit. For competitive experiments, 3BP2 16-mer peptide (100 μM) was added, and the spectra were recorded and processed as above. The variability in signal reduction in the relaxation-edited experiment was previously determined as approximately ± 10% (Liu et al., unpublished observations).

T1 sequence (Q9H2K2 641-800): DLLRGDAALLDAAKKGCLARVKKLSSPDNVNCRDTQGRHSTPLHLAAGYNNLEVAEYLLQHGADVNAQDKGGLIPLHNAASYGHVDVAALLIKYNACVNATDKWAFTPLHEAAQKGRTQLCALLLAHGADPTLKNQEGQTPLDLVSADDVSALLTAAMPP

Row | ΔTm calculated by the inflection point method (TNKS2 ARC5; screen, biphasic melt curves) [°C] | ΔTm calculated by the 1st derivative method (TNKS2 ARC5; screen, second peak used to calculate Tm) [°C] | T2 relaxation-edited: competition with 3BP2 TBM peptide (TNKS2 ARC4) | TNKS2 ARC4 binding of analogues, SAR summary in words (TNKS2 ARC4; relaxation-edited and waterLOGSY NMR) | ΔTm (°C) (TNKS2 ARC5; method of Tm analysis not stated) | binding to TNKS2 ARC4 by ligand-observed NMR, in words (TNKS2 ARC4; DSF hit validation) | Compound
1 | 1.6 | 8.1 | competitive | – | – | – | O=C(NCc1ccc(F)cc1)c1ccc2nccnc2c1 [compound 5]
2 | – | – | competitive | preserved binding | – | – | O=C(NCc1ccco1)c1ccc2nccnc2c1 [compound 9]
3 | – | – | – | – | 2.5 | bound | O=C(NCc1ccco1)c1ccc(F)cc1 [compound 3]
